Reference: paper PMC11940195, “Characterization of a GH43 Bifunctional Glycosidase from Endophytic Chaetomium globosum and Its Potential Application in the Biotransformation of Ginsenosides” (BioTech, 2025)

Test system: T1, Xyaf313
T1 construct: gene of 1380 bp, 460 aa, about 50 kDa theoretical; C-terminal His6; codon-optimized, pPIC9K, secreted from Pichia pastoris GS115, Ni-NTA
Assay: p-nitrophenol release, Michaelis-Menten nonlinear fit
Assay type: biochemical, Chaetomium globosum
Conditions: pH 7, 50 °C (optimal conditions); substrate 0.5-5.0 mM
Source text: p-nitrophenol release, Michaelis-Menten nonlinear fit on Xyaf313

Row | Km | SMILES
1 | 5.65 ± 1.67 mM | O=[N+]([O-])c1ccc(O[C@@H]2O[C@@H](CO)[C@H](O)[C@H]2O)cc1 [4-nitrophenyl α-L-arabinofuranoside]
2 | 1.77 ± 1.27 mM | O=[N+]([O-])c1ccc(O[C@@H]2OC[C@@H](O)[C@H](O)[C@H]2O)cc1 [ρ-nitrophenyl β-D-xylopyranoside]
